The structures appear in SMILES notation.

The test system of one assay is T. cruzi amastigotes. Briefly: Wash-off assay to assess parasite survival following compound removal. In kind it is cell-based. Conditions: Trypanosoma cruzi, 48 hours incubation, additional 72 hours without compound, read-out: percentage activity at the Emax, wash-off assay. On the procedure:
The T. cruzi assay 48 hour assay was performed. Following, plates were washed 5 times with PBS (containing Mg^2+ and Ca^2+) on a Bravo liquid handler to remove compound pressure. Plates were incubated for an additional 72 hours and wells were washed 5 times before fluorescent labels were added. Plates were imaged on an Opera confocal-based high-content system with 7 fields per well acquired, at 20 times magnification. […] Four experimental replicates were undertaken.
For `O=C(Cn1ccnc1[N+](=O)[O-])NCc1ccccc1` [BZ, benznidazole], the Emax was 100%.

As for `CC1CS(=O)(=O)CCN1/N=C/c1ccc([N+](=O)[O-])o1` (stereo not shown) [NFX, nifurtimox], the Emax was 100%.

`CC[C@@H]([C@H](C)O)n1ncn(-c2ccc(N3CCN(c4ccc(OC[C@@H]5CO[C@@](Cn6cncn6)(c6ccc(F)cc6F)C5)cc4)CC3)cc2)c1=O` [POSA, posaconazole]: the Emax is 94%.

Another assay relates to T. cruzi amastigotes. The assay can be described thus: 24 hour image-based assay. The following applies: Trypanosoma cruzi, n of 2, read-out: IC50 value, 24 hours incubation. The class given is cell-based. On the procedure: Compounds were added to assay plates as described for the 48 hour assay, although incubation time was decreased to 24 hours. […] Two experimental replicates were performed.
On to `O=C(Cn1ccnc1[N+](=O)[O-])NCc1ccccc1` [BZ, benznidazole], for which the half-maximal inhibitory concentration (IC50) (commonly the concentration that inhibits the measured activity by half) is 7560 ± 2370 nM.

Consider `CC1CS(=O)(=O)CCN1/N=C/c1ccc([N+](=O)[O-])o1` (stereo not shown) [NFX, nifurtimox], for which the IC50 turned out to be 1200 ± 21.3 nM.

Staying with this assay, now noted: Trypanosoma cruzi, plateau/Emax concentrations, read-out: % activity at the Emax, 24 hours incubation.
`O=C(Cn1ccnc1[N+](=O)[O-])NCc1ccccc1` [BZ, benznidazole]: the Emax was 100%.

As for `CC1CS(=O)(=O)CCN1/N=C/c1ccc([N+](=O)[O-])o1` (stereo not shown) [NFX, nifurtimox], the Emax worked out at 100%.

Turning to `CC[C@@H]([C@H](C)O)n1ncn(-c2ccc(N3CCN(c4ccc(OC[C@@H]5CO[C@@](Cn6cncn6)(c6ccc(F)cc6F)C5)cc4)CC3)cc2)c1=O` [POSA, posaconazole], the Emax is less than 50%.

A further assay has as its system T. cruzi amastigotes. The assay can be described thus: T. cruzi image-based assay (48 hour, intracellular amastigotes in 3T3 host cells). The class given is cell-based, Trypanosoma cruzi. Conditions: DMSO stocks (CF from solid sample), relative to nifurtimox control. On the procedure:
The assay was performed as previously described. […] One wash was undertaken by using a Multidrop plate dispenser and two washes with a Bravo liquid handling device (Agilent Technologies, USA). Five microlitres of compound were added to plates and incubated for 48 hours. Cells were then fixed and stained with Hoechst (Life Technologies, USA) and HCS CellMaskTM Green (Life Technologies, USA) and image acquisition was performed an OperaTM High Content Screening System (PerkinElmer, USA) at 20 times magnification. […] The maximum activity achievable (Emax) of compounds was determined by taking (or as close to, if concentrations in the Emax were limited) the percentage activity at the mid concentration within the plateau of activity in the concentration response curve (see Supplemental Fig. 1, example NFX). […] Final assay concentrations of compounds ranged from 4.03 μM to 4.03 × 10^-3 μM. […] This was only undertaken for the amastigote assay. Dilutions were prepared with a multichannel pipette ([…], Thermo Fisher Scientific, USA) in 384-well polypropylene plates (Corning, NY, USA). […] Compound IC50 values in the TcCYP51 in vitro assay were calculated in GraFit (Erithacus software) by non-linear slope analysis. All data are presented as mean ± standard deviation. The significance of % clearance of parasites at compound Emax concentrations was calculated in Prism 5.0, using an unpaired student's t-test.
With `O=C(Cn1ccnc1[N+](=O)[O-])NCc1ccccc1` [BZ, benznidazole], the “% activity (Emax)” value stood at 99.5 ± 2.12%.

In the case of `CCOC(=O)C(=O)NCC(c1cccnc1)N1CCN(c2ccccc2)CC1` (stereo not shown) [Compound 2], the “% activity (Emax)” value turned out to be 76.5 ± 3.54%.

In the case of `CC1CS(=O)(=O)CCN1/N=C/c1ccc([N+](=O)[O-])o1` (stereo not shown) [NFX, nifurtimox], the “% activity (Emax)” value amounted to 102 ± 1.41%.

The same assay, now with this note: Trypanosoma cruzi, 48 h, DMSO stocks (CF from solid sample), relative to nifurtimox control, read-out: % activity (Emax).
For `O=C(Cn1ccnc1[N+](=O)[O-])NCc1ccccc1` [BZ, benznidazole], the Emax turned out to be 100%.

As for `CCc1ccc(NC(=O)N(Cc2cccnc2)Cc2ccccc2Cl)cc1` [Compound 1, 1-(2-Chlorobenzyl)-3-(4-ethylphenyl)-1-(3-pyridinylmethyl)urea], the Emax was found to be 84.5 ± 6.36%.

Consider `CC1CS(=O)(=O)CCN1/N=C/c1ccc([N+](=O)[O-])o1` (stereo not shown) [NFX, nifurtimox], for which the Emax stood at 100%.

For `CC[C@@H]([C@H](C)O)n1ncn(-c2ccc(N3CCN(c4ccc(OC[C@@H]5CO[C@@](Cn6cncn6)(c6ccc(F)cc6F)C5)cc4)CC3)cc2)c1=O` [POSA, posaconazole], the Emax was 70 ± 8.49%.

Staying with this assay, now noted: Trypanosoma cruzi, 48 h, n of 4, read-out: percentage activity at the Emax, 48 hours incubation (temporal experiments, Fig. 3).
On to `CC[C@@H]([C@H](C)O)n1ncn(-c2ccc(N3CCN(c4ccc(OC[C@@H]5CO[C@@](Cn6cncn6)(c6ccc(F)cc6F)C5)cc4)CC3)cc2)c1=O` [POSA, posaconazole], for which the Emax is 75.3%.

Still in this assay, the particulars now being: Trypanosoma cruzi, NIH3T3, 48 h, intracellular amastigotes in 3T3 cells, retested from DMSO stocks (CF from solid sample, temporal experiments).
For `O=C(Cn1ccnc1[N+](=O)[O-])NCc1ccccc1` [BZ, benznidazole], half-maximal inhibition (IC50) was put at 3560 ± 2340 nM.

On to `CCc1ccc(NC(=O)N(Cc2cccnc2)Cc2ccccc2Cl)cc1` [Compound 1, 1-(2-Chlorobenzyl)-3-(4-ethylphenyl)-1-(3-pyridinylmethyl)urea], for which half-maximal inhibition (IC50) required 3480 ± 622 nM.

For the compound `CC1CS(=O)(=O)CCN1/N=C/c1ccc([N+](=O)[O-])o1` (stereo not shown) [NFX, nifurtimox], the IC50 came out at 709 ± 161 nM.

Still in this assay, the particulars now being: intracellular amastigotes in 3T3 cells, retested from DMSO stocks (CF from solid sample, temporal experiments).
`CCOC(=O)C(=O)NCC(c1cccnc1)N1CCN(c2ccccc2)CC1` (stereo not shown) [Compound 2]: inhibition was half-maximal at 2170 ± 499 nM (IC50).

For the next assay, the system named is T. cruzi epimastigotes. Briefly: 120 hour T. cruzi epimastigote assay (PrestoBlue). In kind it is cell-based. Conditions: Trypanosoma cruzi. On the procedure:
Additions were made with a Multidrop dispenser and compounds were added directly following parasite addition. Plates were incubated for 112 hours before the addition 10 µL of PrestoBlue® viability reagent (Thermo Fisher, USA). […] The positive control was NFX at a final concentration of 14.20 µM and 0.433% DMSO as a negative control.
Regarding `O=C(Cn1ccnc1[N+](=O)[O-])NCc1ccccc1` [BZ, benznidazole], the midpoint of inhibition, the IC50, lay at 5780 ± 477 nM.

`CC1CS(=O)(=O)CCN1/N=C/c1ccc([N+](=O)[O-])o1` (stereo not shown) [NFX, nifurtimox] showed a 50% inhibitory concentration (IC50) of 1110 ± 131 nM.

A further assay relates to T. cruzi amastigotes. The assay can be described thus: 96 hour image-based assay. The class given is cell-based, Trypanosoma cruzi. The following applies: Trypanosoma cruzi; 96 hours, n of 2; read-out: reduction in infected cells at the Emax, 96 hours exposure. On the procedure:
The assay format was the same as the 48 hour assay, although plates were incubated for 96 hours. […] Two extra wash steps were included to remove as many extracellular parasites as possible to reduce impact on determination of intracellular parasites. […] Two experimental replicates were undertaken.
Regarding `CC[C@@H]([C@H](C)O)n1ncn(-c2ccc(N3CCN(c4ccc(OC[C@@H]5CO[C@@](Cn6cncn6)(c6ccc(F)cc6F)C5)cc4)CC3)cc2)c1=O` [POSA, posaconazole], the Emax turned out to be 96.5%.

Still in this assay, the particulars now being: Trypanosoma cruzi; difference 96 hours minus 48 hours; read-out: increase in activity at the Emax from 48 to 96 hours incubation.
For `CC[C@@H]([C@H](C)O)n1ncn(-c2ccc(N3CCN(c4ccc(OC[C@@H]5CO[C@@](Cn6cncn6)(c6ccc(F)cc6F)C5)cc4)CC3)cc2)c1=O` [POSA, posaconazole], the Emax is 21.3%.

The same assay, now with this note: difference 96 hours minus 48 hours.
`O=C(Cn1ccnc1[N+](=O)[O-])NCc1ccccc1` [BZ, benznidazole]: the “increase in activity at the Emax from 48 to 96 hours incubation” value is on record as “no difference”.

Take `CC1CS(=O)(=O)CCN1/N=C/c1ccc([N+](=O)[O-])o1` (stereo not shown) [NFX, nifurtimox]: the “increase in activity at the Emax from 48 to 96 hours incubation” value is on record as “no difference”.

The subject of a further assay is 3T3 host cells. Briefly: 3T3 host cell activity in the T. cruzi image-based assay. Set-up: species or system mouse. Conditions: Mus musculus, NIH3T3; 48 hours; no activity up to top concentration; read-out: IC50 value against 3T3 cells used for SI. The procedure: To calculate compound activity, 12.0 µM NFX was used as a positive control and 0.366% DMSO was used as a negative control. To determine the activity against the host cell, 30.0 µM of puromycin was used as a positive control. The percentage normalised activity was determined using the equation outlined in our previous publication[19] and the reproducibility of the assay was determined using the Z’-factor[20].
The assay was performed as previously described. Briefly, 3T3 cells were seeded at a concentration of 1 × 10^3 cells in 50 µL per well into collagen I coated 384-well plates (PerkinElmer, USA). Following 24 hours incubation at 37 °C and 5% CO2, 10 µL of parasites were added to wells at a multiplicity of infection (MOI) of 5:1 (parasites: host cells) with a Multidrop™ dispenser (Thermo Fisher, USA). Following 24 hours incubation, wells were washed with PBS (containing Mg^2+ and Ca^2+) to remove uninfected parasites. One wash was undertaken by using a Multidrop plate dispenser and two washes with a Bravo liquid handling device (Agilent Technologies, USA). Five microlitres of compound were added to plates and incubated for 48 hours. Cells were then fixed and stained with Hoechst (Life Technologies, USA) and HCS CellMask™ Green (Life Technologies, USA) and image acquisition was performed an Opera™ High Content Screening System (PerkinElmer, USA) at 20 times magnification. The positive control was 12.0 µM NFX and the negative control was 0.366% DMSO.
With `O=C(Cn1ccnc1[N+](=O)[O-])NCc1ccccc1` [BZ, benznidazole], the CC50 is greater than 127000 nM.

On to `CCc1ccc(NC(=O)N(Cc2cccnc2)Cc2ccccc2Cl)cc1` [Compound 1, 1-(2-Chlorobenzyl)-3-(4-ethylphenyl)-1-(3-pyridinylmethyl)urea], for which the CC50 is greater than 18300 nM.

As for `CC1CS(=O)(=O)CCN1/N=C/c1ccc([N+](=O)[O-])o1` (stereo not shown) [NFX, nifurtimox], the CC50 was greater than 127000 nM.

Take `CC[C@@H]([C@H](C)O)n1ncn(-c2ccc(N3CCN(c4ccc(OC[C@@H]5CO[C@@](Cn6cncn6)(c6ccc(F)cc6F)C5)cc4)CC3)cc2)c1=O` [POSA, posaconazole]: the CC50 was 1000 nM.

The same assay, now with this note: ratio 3T3 host cell / parasite IC50, 48 hours.
With `O=C(Cn1ccnc1[N+](=O)[O-])NCc1ccccc1` [BZ, benznidazole], the “SI to 3T3” value is given as greater than 35.7.

As to `CCc1ccc(NC(=O)N(Cc2cccnc2)Cc2ccccc2Cl)cc1` [Compound 1, 1-(2-Chlorobenzyl)-3-(4-ethylphenyl)-1-(3-pyridinylmethyl)urea], the “SI to 3T3” value is on record as greater than 5.26.

On to `CCOC(=O)C(=O)NCC(c1cccnc1)N1CCN(c2ccccc2)CC1` (stereo not shown) [Compound 2], for which the “SI to 3T3” value was greater than 8.43.

Take `CC1CS(=O)(=O)CCN1/N=C/c1ccc([N+](=O)[O-])o1` (stereo not shown) [NFX, nifurtimox]: the “SI to 3T3” value is on record as greater than 179.

The target of another assay is recombinant TcCYP51 (Trypanosoma cruzi, UniProt Q7Z1V1).
Chain of recombinant TcCYP51 (Q7Z1V1 whole entry): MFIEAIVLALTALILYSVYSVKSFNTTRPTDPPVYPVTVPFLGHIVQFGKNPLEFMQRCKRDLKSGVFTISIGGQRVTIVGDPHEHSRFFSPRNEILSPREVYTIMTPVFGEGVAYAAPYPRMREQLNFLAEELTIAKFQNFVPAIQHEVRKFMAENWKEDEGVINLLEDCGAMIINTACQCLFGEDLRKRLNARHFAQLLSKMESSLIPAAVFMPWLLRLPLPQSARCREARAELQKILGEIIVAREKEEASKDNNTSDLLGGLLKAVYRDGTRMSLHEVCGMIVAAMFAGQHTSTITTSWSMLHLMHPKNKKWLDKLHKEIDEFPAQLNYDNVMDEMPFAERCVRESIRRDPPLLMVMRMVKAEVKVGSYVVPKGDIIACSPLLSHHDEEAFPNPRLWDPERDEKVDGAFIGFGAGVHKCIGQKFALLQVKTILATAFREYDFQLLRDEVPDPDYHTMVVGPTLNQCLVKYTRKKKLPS
Test: not given
In kind it is biochemical. Conditions: BOMCC probe; read-out: IC50 value against recombinant TcCYP51. On the procedure: The activity of compounds against TcCYP51 was determined at the University of Dundee as outlined previously. This assay utilises the fluorogenic probe benzyloxymethyloxycyanocoumarin (BOMCC), activated by TcCYP51. […] Preliminarily testing of MMV001239 was performed using this assay, with 1 replicate concentration response curve generated to establish whether it was a putative TcCYP51 inhibitor.
Compound IC50 values in the T. cruzi and HEK293 cell-based assays were determined using Prism 5.0 (GraphPad software), derived by a sigmoidal concentration response (variable slope) analysis. Compound IC50 values in the TcCYP51 in vitro assay were calculated in GraFit (Erithacus software) by non-linear slope analysis. All data are presented as mean ± standard deviation. The significance of % clearance of parasites at compound Emax concentrations was calculated in Prism 5.0, using an unpaired student’s t-test.
Consider `CCOC(=O)C(=O)NCC(c1cccnc1)N1CCN(c2ccccc2)CC1` (stereo not shown) [Compound 2], for which the half-maximal inhibitory concentration (IC50) worked out at 562 ± 130 nM.

In a further assay the test system is HEK293 cells. The assay can be described thus: HEK293 assay (resazurin). The class given is cell-based, human. The following applies: 120 hours; HEK293 / epimastigote IC50; NA = SI cannot be determined, tested to 79.4 µM. On the procedure:
[…] […] Plates were incubated for 24 hours before the addition of compounds. […] The positive control was 32.5 μM puromycin and the negative control was 0.433% DMSO, slightly different to the T. cruzi assay due to the change in volume, whilst utilising the same stock control plate. […] […] […] This was only undertaken for the amastigote assay. Dilutions were prepared with a multichannel pipette ([…], Thermo Fisher Scientific, USA) in 384-well polypropylene plates (Corning, NY, USA).
Regarding `O=C(Cn1ccnc1[N+](=O)[O-])NCc1ccccc1` [BZ, benznidazole], the “SI to HEK293 cells” value was greater than 26.1.

On to `CC1CS(=O)(=O)CCN1/N=C/c1ccc([N+](=O)[O-])o1` (stereo not shown) [NFX, nifurtimox], for which the “SI to HEK293 cells” value is on record as greater than 136.
